Measured values as given in patent US20260256792A1, “TREATMENT OF CHRONIC SPONTANEOUS URTICARIA BY ADMINISTERING (R)-2-[3-[4-AMINO-3-(2-FLUORO-4-PHENOXY-PHENYL)PYRAZOLO[3,4-D]PYRIMIDIN-1-YL]PIPERIDINE-1-CARBONYL]-4-METHYL-4-[4-(OXETAN-3-YL)PIPERAZIN-1-YL]PENT-2-ENENITRILE” (priority 2023, published 2026).

System: angioedema in CSU patients
Assay: Phase 2 CSU study: angioedema activity score over 7 days (AAS7)
Format: in vivo, human
Conditions: for Non-responder n (%), AAS7 = 0 / OR (95% CI) for rilzabrutinib vs. placebo, AAS7 = 0 / RRD (%) for rilzabrutinib vs. placebo (95% CI), AAS7 = 0 / Responder n (%), AAS7 = 0: outlier removed
From the text: The study comprises a 12 week, randomized, double-blind, placebo-controlled, multi-center, dose-ranging efficacy and safety phase, followed by a 40 week open label extension (OLE) phase (see FIG. 1). The study consists of three phases and an optional OLE phase. […] The weekly angioedema activity score (AAS7) was proposed as a tertiary endpoint. […] Patients were to complete the AAS using the e-diary. The e-diary was to be used once daily on the same time of each day recording of participant's answers to the angioedema activity score over 7 days (AAS7) questionnaire.

[1] = 400 mg BID, Week 12, omalizumab-naïve, angioedema at baseline
[2] = 400 mg QPM, Week 1, ITT, angioedema at baseline
[3] = 400 mg QPM, Week 1, omalizumab-naïve
[4] = 400 mg QPM, Week 1, omalizumab-naïve, angioedema at baseline
[5] = 400 mg QPM, Week 2, ITT, angioedema at baseline
[6] = 400 mg QPM, Week 2, omalizumab-naïve
[7] = 400 mg QPM, Week 2, omalizumab-naïve, angioedema at baseline
[8] = 400 mg QPM, Week 3, ITT, angioedema at baseline
[9] = 400 mg QPM, Week 3, omalizumab-naïve
[10] = 400 mg QPM, Week 3, omalizumab-naïve, angioedema at baseline
[11] = 400 mg QPM, Week 4, ITT, angioedema at baseline
[12] = 400 mg QPM, Week 4, omalizumab-naïve
[13] = 400 mg QPM, Week 4, omalizumab-naïve, angioedema at baseline

Compound: CC(C)(C=C(C#N)C(=O)N1CCC[C@@H](n2nc(-c3ccc(Oc4ccccc4)cc3F)c3c(N)ncnc32)C1)N1CCN(C2COC2)CC1 [rilzabrutinib, (R)-2-[3-[4-amino-3-(2-fluoro-4-phenoxy-phenyl)pyrazolo[3,4-d]pyrimidin-1-yl]piperidine-1-carbonyl]-4-methyl-4-[4-(oxetan-3-yl)piperazin-1-yl]pent-2-enenitrile]
- AAS7 Change from baseline LS Mean (SE) [1]: −41.53 (4.39)
- AAS7 Post-baseline Mean (SD) [1]: 11.73 (18.07)
- Participants with AAS7 = 0, Responder n (%) [1]: 11 (42.3) n (%)
- patients achieving angioedema score (AAS7) of 0 (400 mg BID, within one week of initiating treatment, omalizumab-naïve): 42.3%
- AAS7 % Change difference for rilzabrutinib vs. placebo LS Mean (95% CI) [2]: −12.18 (−42.38, 18.02) %
- AAS7 % Change from baseline LS Mean (SE) [2]: −32.14 (9.37) %
- AAS7 Change difference for rilzabrutinib vs. placebo LS Mean (95% CI) [2]: −5.18 (−18.04, 7.67)
- AAS7 Change from baseline LS Mean (SE) [2]: −19.68 (3.99)
- AAS7 Post-baseline Mean (SD) [2]: 34.57 (21.50)
- Non-responder n (%), AAS7 = 0 [3]: 24 (64.9) n (%)
- OR (95% CI) for rilzabrutinib vs. placebo, AAS7 = 0 [3]: 1.428
- RRD (%) for rilzabrutinib vs. placebo (95% CI), AAS7 = 0 [3]: 8.1 %
- Responder n (%), AAS7 = 0 [3]: 13 (35.1) n (%)
- AAS7 % Change difference for rilzabrutinib vs. placebo LS Mean (95% CI) [4]: −14.70 (−47.27, 17.88) %
- AAS7 % Change from baseline LS Mean (SE) [4]: −31.74 (9.84) %
- AAS7 = 0, OR (95% CI) for rilzabrutinib vs. placebo [4]: 3.545
- AAS7 = 0, RRD (%) for rilzabrutinib vs. placebo (95% CI) [4]: 9.1 %
- AAS7 Change difference for rilzabrutinib vs. placebo LS Mean (95% CI) [4]: −5.57 (−19.34, 8.21)
- AAS7 Change from baseline LS Mean (SE) [4]: −19.33 (4.16)
- AAS7 Post-baseline Mean (SD) [4]: 34.85 (21.86)
- AAS7 % Change difference for rilzabrutinib vs. placebo LS Mean (95% CI) [5]: 4.26 (−27.23, 35.76) %
- AAS7 Change from baseline LS Mean (SE) [5]: −21.54 (4.19)
- AAS7 Post-baseline Mean (SD) [5]: 32.95 (23.02)
- Non-responder n (%), AAS7 = 0 [6]: 24 (64.9) n (%)
- OR (95% CI) for rilzabrutinib vs. placebo, AAS7 = 0 [6]: 0.875
- RRD (%) for rilzabrutinib vs. placebo (95% CI), AAS7 = 0 [6]: −3.3 %
- Responder n (%), AAS7 = 0 [6]: 13 (35.1) n (%)
- AAS7 % Change difference for rilzabrutinib vs. placebo LS Mean (95% CI) [7]: 0.88 (−32.86, 34.63) %
- AAS7 % Change from baseline LS Mean (SE) [7]: −36.33 (12.38) %
- AAS7 = 0, OR (95% CI) for rilzabrutinib vs. placebo [7]: 0.514
- AAS7 = 0, RRD (%) for rilzabrutinib vs. placebo (95% CI) [7]: −9.2 %
- AAS7 Post-baseline Mean (SD) [7]: 33.25 (23.40)
- AAS7 % Change difference for rilzabrutinib vs. placebo LS Mean (95% CI) [8]: 15.17 (−24.59, 54.94) %
- AAS7 % Change from baseline LS Mean (SE) [8]: −33.35 (14.94) %
- AAS7 Change difference for rilzabrutinib vs. placebo LS Mean (95% CI) [8]: 2.33 (−9.09, 13.74)
- AAS7 Change from baseline LS Mean (SE) [8]: −21.82 (4.29)
- AAS7 Post-baseline Mean (SD) [8]: 32.48 (20.51)
- Non-responder n (%), AAS7 = 0 [9]: 25 (67.6) n (%)
- OR (95% CI) for rilzabrutinib vs. placebo, AAS7 = 0 [9]: 1.041
- RRD (%) for rilzabrutinib vs. placebo (95% CI), AAS7 = 0 [9]: 0.9 %
- Responder n (%), AAS7 = 0 [9]: 12 (32.4) n (%)
- AAS7 % Change difference for rilzabrutinib vs. placebo LS Mean (95% CI) [10]: 14.44 (−28.58, 57.46) %
- AAS7 % Change from baseline LS Mean (SE) [10]: −33.23 (15.73) %
- AAS7 = 0, Non-responder n (%) [10]: 23 (85.2) n (%)
- AAS7 = 0, OR (95% CI) for rilzabrutinib vs. placebo [10]: 0.686
- AAS7 = 0, RRD (%) for rilzabrutinib vs. placebo (95% CI) [10]: −5.0 %
- AAS7 Post-baseline Mean (SD) [10]: 32.60 (20.89)
- Participants with AAS7 = 0, Responder n (%) [10]: 4 (14.8) n (%)
- AAS7 % Change difference for rilzabrutinib vs. placebo LS Mean (95% CI) [11]: −12.88 (−48.34, 22.58) %
- AAS7 % Change from baseline LS Mean (SE) [11]: −49.47 (13.21) %
- AAS7 Change difference for rilzabrutinib vs. placebo LS Mean (95% CI) [11]: −2.68 (−13.70, 8.35)
- AAS7 Change from baseline LS Mean (SE) [11]: −25.28 (4.12)
- AAS7 Post-baseline Mean (SD) [11]: 29.42 (20.30)
- Non-responder n (%), AAS7 = 0 [12]: 23 (62.2) n (%)
- OR (95% CI) for rilzabrutinib vs. placebo, AAS7 = 0 [12]: 0.874
- RRD (%) for rilzabrutinib vs. placebo (95% CI), AAS7 = 0 [12]: −3.0 %
- Responder n (%), AAS7 = 0 [12]: 14 (37.8) n (%)
- AAS7 % Change difference for rilzabrutinib vs. placebo LS Mean (95% CI) [13]: −19.26 (−57.48, 18.97) %
- AAS7 % Change from baseline LS Mean (SE) [13]: −49.19 (13.84) %
